Laboratory results: patent publication US20210130308A1, “MODULATORS OF EUKARYOTIC INITIATION FACTOR 2” (Denali Therapeutics Inc., priority 2018, published 2021)

The compounds below were run on ATF4 translation (ISR pathway activation) (assay: ATF4 Nano Luciferase reporter integrated stress response (ISR) assay in H4 ATF4-NLuc (clone 17) cells). Conditions: H4 ATF4-NLuc (clone 17) cells; compounds 30 minutes at 37 degree Celsius, then 50 um sodium arsenite for 6 additional hours; luminescence readout; read-out: IC50.
Type: cell-based, human
From the text: Cellular stress leads to activation of the integrated stress response pathway through one of four eukaryotic initiation factor 2α kinases and halts global translation, while allowing for the translation of select transcripts like ATF4 (activating transcription factor 4) that are important for the response to cellular stress. During normal conditions, small open reading frames (ORFs) in the 5′ UTR of ATF4 occupy the ribosome and prevent translation of the coding sequence of ATF4. During stress conditions however, the ribosome scans past these upstream ORFs and preferentially begins translation at the coding sequence of ATF4. In this way, the translation, and thus protein level of ATF4 is a readout of ISR pathway activation. Thus, a fusion of the uORFs and the beginning of the coding sequence of ATF to a common cellular reporter like nano-luciferase allows for a sensitive and high-throughput readout of ISR pathway activity.
Compounds as provided herein were tested in the following assay. The ATF4 Nano Luciferase reporter was constructed by fusing the human full length 5′ untranslated region (5′-UTR) and a small portion of the coding sequence of the ATF4 gene upstream of the Nano Luciferase (NLuc) coding sequence lacking it's start codon. Specifically, nucleotides +1 through +364 (relative to the transcriptional start site) of ATF4 transcript variant 2 (NCBI NM_182810.2) flanked 5′ by EcoRI and 3′ by BamHI restriction enzyme sites were synthesized and cloned into the EcoRI/BamHI cloning sites of pLVX-EF1a-IRES-Puro lentivirus vector (Clontech). […]. H4 cells were selected with […] Puromycin, and clonal cell lines generated by limiting dilution. We utilized this cell line to generate an integrated stress response (ISR) assay to evaluate the activity of ISR pathway inhibitors via luminescence readout. The H4 ATF4-NLuc (clone 17) cell line is plated at a density of […] in 96-well or 384-well respectively in DMEM+10% fetal bovine serum. 24-hours later test compounds diluted in dimethyl sulfoxide (DMSO) are added for 30 minutes at 37 degree Celsius, followed by ISR pathway activation with 50 um sodium arsenite aqueous solution for 6 additional hours. Nano Glo luciferase reagent (N1150, Promega) is added according to manufacturer instructions and the luminescence signal (corresponding to the level of ATF4 translation and thus ISR pathway activation) is read with a standard plate reader with luminescence detection capabilities.
In the table below, activity of the tested compounds is provided in Table 3 as follows: +++=IC50<1 μM; ++=IC50 1-10 μM; +=IC50>10 μM.
For `O=C(COC1CC(F)C1)NC12CC(NC(=O)c3ccc4cc(C(F)(F)F)ccc4n3)(C1)C2` (stereo not drawn) [Example 54, N-[1-[[2-(3-cis-fluorocyclobutoxy)acetyl]amino]-3-bicyclo[1.1.1]pentanyl]-6-(trifluoromethyl)quinoline-2-carboxamide], the IC50 was less than 1000 nM.

Same assay, conditions: Homo sapiens, 0.5 h
For `O=C(COC1CC(OC(F)(F)F)C1)NC1CCN(c2nnc(-c3ccc(Cl)cc3)o2)CC1` (stereo not drawn) [Example 44, N-[1-[5-(4-chlorophenyl)-1,3,4-oxadiazol-2-yl]-4-piperidyl]-2-[3-cis-(trifluoromethoxy)cyclobutoxy]acetamide], the IC50 was less than 1000 nM.
Work on `O=C(COc1ccc(Cl)c(F)c1)NC1C[C@H]2COC[C@@H](C1)N2c1cnn(C2CC(OC(F)(F)F)C2)c1` (stereo partly drawn) [Example 50, 2-(4-chloro-3-fluoro-phenoxy)-N-[(1S,5R,7r)-9-[1-[3-cis-(trifluoromethoxy)cyclobutyl]pyrazol-4-yl]-3-oxa-9-azabicyclo[3.3.1]nonan-7-yl]acetamide] yielded an IC50 of less than 1000 nM.
With `O=C(COc1ccc(Cl)cc1)N[C@H]1C[C@@H]2CN(C(=O)COC3CC(OC(F)(F)F)C3)C[C@@H]2C1` (some centres unmarked) [Example 59] the IC50 was less than 1000 nM.
`O=C(COc1ccc(Cl)cc1)NC1CC2CN(c3cnn([C@H]4C[C@@H](OC(F)(F)F)C4)c3)CC2C1` (stereo partly drawn) [Example 61, 2-(4-chlorophenoxy)-N-(2-(1-(3-cis-(trifluoromethoxy)cyclobutyl)-1H-pyrazol-4-yl)octahydrocyclopenta[c]pyrrol-5-yl)acetamide] showed an IC50 greater than 10000 nM.

Same assay, conditions: Homo sapiens, 0.5 h; H4 ATF4-NLuc (clone 17) cells; compounds 30 minutes at 37 degree Celsius, then 50 um sodium arsenite for 6 additional hours; luminescence readout; read-out: IC50
Work on `O=C(COc1ccc(Cl)c(F)c1)NC12CC(NC(=O)COC3CC(OC(F)F)C3)(C1)C2` (stereo not drawn) [Example 34, 2-(4-chloro-3-fluoro-phenoxy)-N-[3-[[2-[3-cis-(difluoromethoxy)cyclobutoxy]acetyl]amino]-1-bicyclo[1.1.1]pentanyl]acetamide] yielded an IC50 of less than 1000 nM.
Compound `COC1CC(OCC(=O)NC23CC(NC(=O)COc4ccc(Cl)c(F)c4)(C2)C3)C1` (stereo not drawn) [Example 35, 2-(4-chloro-3-fluoro-phenoxy)-N-[3-[[2-(3-cis-methoxycyclobutoxy)acetyl]amino]-1-bicyclo[1.1.1]pentanyl]acetamide] has an IC50 of less than 1000 nM.
For `CC1CC(OCC(=O)NC23CC(NC(=O)COc4ccc(Cl)cc4)(C2)C3)C1` (stereo not drawn) [Example 36, 2-(4-chlorophenoxy)-N-[3-[[2-(3-cis-methylcyclobutoxy)acetyl]amino]-1-bicyclo[1.1.1]pentanyl]acetamide], the IC50 was less than 1000 nM.
`O=C(COc1ccc(Cl)c(F)c1)NC12CC(NC(=O)CO[C@H]3C[C@@H](OC(F)(F)F)C3)(C1)C2` [Example 37, 2-(4-chloro-3-fluoro-phenoxy)-N-[3-[[2-[3-cis-(trifluoromethoxy)cyclobutoxy]acetyl]amino]-1-bicyclo[1.1.1]pentanyl]acetamide] showed an IC50 of less than 1000 nM.
In the case of `O=C(COc1ccc(Cl)c(F)c1)NC12CC(NC(=O)COC3CC(C(F)F)C3)(C1)C2` (stereo not drawn) [Example 38, 2-(4-chloro-3-fluoro-phenoxy)-N-[3-[[2-[3-cis-(difluoromethyl)cyclobutoxy]acetyl]amino]-1-bicyclo[1.1.1]pentanyl]acetamide], the IC50 is reported as less than 1000 nM.
For `O=C(COC1CC(OC(F)(F)F)C1)NC12CC(NC(=O)COC3CC(OC(F)(F)F)C3)(C1)C2` (stereo not drawn) [Example 39, 2-[3-cis-(trifluoromethoxy)cyclobutoxy]-N-[3-[[2-[3-cis-(trifluoromethoxy)cyclobutoxy]acetyl]amino]-1-bicyclo[1.1.1]pentanyl]acetamide], the IC50 was less than 1000 nM.
Compound `O=C(COc1ccc(Cl)c(F)c1)N[C@H]1C[C@@H]2CN(C(=O)COC3CCC3)C[C@@H]2C1` [Example 40, 2-(4-chloro-3-fluorophenoxy)-N-((3aR,5s,6aS)-2-(2-cyclobutoxyacetyl)octahydrocyclopenta[c]pyrrol-5-yl)acetamide] has an IC50 of less than 1000 nM.
With `O=C(COc1ccc(Cl)c(F)c1)N[C@@H]1C[C@@H]2CN(C(=O)COC3CCC3)C[C@@H]2C1` [Example 41, 2-(4-chloro-3-fluorophenoxy)-N-((3aR,5r,6aS)-2-(2-cyclobutoxyacetyl)octahydrocyclopenta[c]pyrrol-5-yl)acetamide] the IC50 was less than 1000 nM.
Work on `O=C(COc1ccc(Cl)c(F)c1)N[C@@H]1C[C@@H]2[C@H](C1)[C@H]2c1nnc(C2CC(OC(F)(F)F)C2)o1` (stereo partly drawn) [Example 43, 2-(4-chloro-3-fluoro-phenoxy)-N-[(1R,5S)-6-[5-[3-(trifluoromethoxy)cyclobutyl]-1,3,4-oxadiazol-2-yl]-3-bicyclo[3.1.0]hexanyl]acetamide] yielded an IC50 of less than 1000 nM.
With `O=C(COc1ccc(Cl)c(F)c1)NC1CCN(c2cnn(C3CC(OC(F)(F)F)C3)c2)CC1` (stereo not drawn) [Example 46, 2-(4-chloro-3-fluorophenoxy)-N-(1-(1-(3-cis-(trifluoromethoxy)cyclobutyl)-1H-pyrazol-4-yl)piperidin-4-yl)acetamide] the IC50 was less than 1000 nM.
In the case of `O=C(COc1ccc(Cl)c(F)c1)NC1CCN(CCOC2CC(OC(F)(F)F)C2)CC1(F)F` (stereo not drawn) [Example 47, 2-(4-chloro-3-fluoro-phenoxy)-N-[3,3-difluoro-1-[2-[3-cis-(trifluoromethoxy)cyclobutoxy]ethyl]-4-piperidyl]acetamide], the IC50 is reported as less than 1000 nM.
With `CO[C@H]1CN(CCOC2CC(OC(F)(F)F)C2)CCC1NC(=O)COc1ccc(Cl)c(F)c1` (stereo partly drawn) [Example 48, 2-(4-chloro-3-fluoro-phenoxy)-N-[cis-3-methoxy-1-[2-[3-cis-(trifluoromethoxy)cyclobutoxy]ethyl]-4-piperidyl]acetamide] the IC50 was less than 1000 nM.
In the case of `CO[C@@H]1CN(CCOC2CC(OC(F)(F)F)C2)CCC1NC(=O)COc1ccc(Cl)c(F)c1` (stereo partly drawn) [Example 49, 2-(4-chloro-3-fluoro-phenoxy)-N-[trans-3-methoxy-1-[2-[3-cis-(trifluoromethoxy)cyclobutoxy]ethyl]-4-piperidyl]acetamide], the IC50 is reported as less than 1000 nM.
Compound `O=C(COC1CC(OC(F)(F)F)C1)NC12CC(NC(=O)c3ccc4cc(C(F)(F)F)ccc4n3)(C1)C2` (stereo not drawn) [Example 51, N-[1-[[2-[3-cis-(trifluoromethoxy)cyclobutoxy]acetyl]amino]-3-bicyclo[1.1.1]pentanyl]-6-(trifluoromethyl)quinoline-2-carboxamide] has an IC50 of less than 1000 nM.
`O=C(COC1CC(OC(F)(F)F)C1)NC12CC(NC(=O)c3nc4cc(Cl)ccc4s3)(C1)C2` (stereo not drawn) [Example 52, 5-chloro-N-[1-[[2-[3-cis-(trifluoromethoxy)cyclobutoxy]acetyl]amino]-3-bicyclo[1.1.1]pentanyl]-1,3-benzothiazole-2-carboxamide] gave an IC50 of less than 1000 nM.
For `O=C(COC1CC(F)C1)NC12CC(NC(=O)c3ccc4cc(C(F)(F)F)ccc4n3)(C1)C2` (stereo not drawn) [Example 53, N-[1-[[2-(3-trans-fluorocyclobutoxy)acetyl]amino]-3-bicyclo[1.1.1]pentanyl]-6-(trifluoromethyl)quinoline-2-carboxamide], the IC50 was less than 1000 nM.
`O=C(COCC1CC1(F)F)NC12CC(NC(=O)c3ccc4cc(C(F)(F)F)ccc4n3)(C1)C2` (centres unmarked) [Example 55, N-[1-[[2-[(2,2-difluorocyclopropyl)methoxy]acetyl]amino]-3-bicyclo[1.1.1]pentanyl]-6-(trifluoromethyl)quinoline-2-carboxamide] was tested, and the IC50 was less than 1000 nM.
For `O=C(COc1ccc(Cl)c(F)c1)NC1CCN(CCOC2CC(OC(F)(F)F)C2)C(=O)C1` (stereo not drawn) [Example 56, 2-(4-chloro-3-fluorophenoxy)-N-(2-oxo-1-(2-(3-cis-(trifluoromethoxy)cyclobutoxy)ethyl)piperidin-4-yl)acetamide], the IC50 was less than 1000 nM.
For `O=C(COc1ccc(Cl)c(F)c1)NC1CCN(CC(F)(F)COC2CC(OC(F)(F)F)C2)CC1` (stereo not drawn) [Example 57, 2-(4-chloro-3-fluorophenoxy)-N-(1-(2,2-difluoro-3-(3-cis-(trifluoromethoxy)cyclobutoxy)propyl)piperidin-4-yl)acetamide], the IC50 was less than 1000 nM.
`O=C(COc1ccc(Cl)c(F)c1)NCC1CCN(C(=O)COC2CC(OC(F)(F)F)C2)C1` (stereo not drawn) [Example 60, 2-(4-chloro-3-fluorophenoxy)-N-((1-(2-(3-cis-(trifluoromethoxy)cyclobutoxy)acetyl)pyrrolidin-3-yl)methyl)acetamide] showed an IC50 of less than 1000 nM.
Compound `O=C(COc1ccc(Cl)c(F)c1)NC1CCN(C(=O)COC2CC(OC(F)(F)F)C2)CC1` (stereo not drawn) [Example 62, 2-(4-chloro-3-fluoro-phenoxy)-N-[1-[2-[3-cis-(trifluoromethoxy)cyclobutoxy]acetyl]-4-piperidyl]acetamide] has an IC50 of less than 1000 nM.
